Results: patent publication US5620958A, “Bradykinin antagonists” (Coretech, Inc., priority 1994, dated 1997)
Numbered stars: 1 amine (or outer) side, 2 acyl side, 3 side chain; on linkers, the order of the positions; unused ones are H or OH. Bridge positions count the residues as written; N and C are the ends. Square brackets hold non-standard residues; d marks the D form. Peptide text beside a SMILES is read from it. I, II: the chains in the order shown. BMH = O=C1CC([*:1])C(=O)N1CCCCCCN1C(=O)CC([*:2])C1=O; Oic = O=C(O)[C@@H]1C[C@@H]2CCCC[C@@H]2N1; Hyp = O=C(O)[C@@H]1C[C@@H](O)CN1; dTic = O=C(O)[C@H]1Cc2ccccc2CN1

Columns and labels:
BK1 receptor [1] = target: T1, BK1 receptor (Oryctolagus cuniculus, UniProt P48748); assay: rabbit aorta in vitro, reversal of des-Arg^9 -BK contraction; type: cell-based; details: for IC50: negative log of molar concentration
T1 construct: when administered to an intact animal; from tissue; host or cells: whole rabbit (systemic arterial blood pressure), LPS-pretreated
T1 sequence (P48748 1-352): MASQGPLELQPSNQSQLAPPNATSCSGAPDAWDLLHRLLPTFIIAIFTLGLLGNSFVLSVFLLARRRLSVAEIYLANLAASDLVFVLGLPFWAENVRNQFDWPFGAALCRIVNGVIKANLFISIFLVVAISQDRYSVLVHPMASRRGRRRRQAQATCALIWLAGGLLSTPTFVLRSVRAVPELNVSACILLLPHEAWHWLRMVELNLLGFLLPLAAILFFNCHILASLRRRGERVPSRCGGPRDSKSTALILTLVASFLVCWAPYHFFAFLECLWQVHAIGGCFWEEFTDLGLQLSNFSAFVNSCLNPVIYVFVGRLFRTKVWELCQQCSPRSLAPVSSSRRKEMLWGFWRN

BK2 receptor [2] = target: T2, BK2 receptor (Rattus norvegicus, UniProt P25023); details: for BK2 Rat Uterus pA2: Table L
T2 sequence (P25023 1-396): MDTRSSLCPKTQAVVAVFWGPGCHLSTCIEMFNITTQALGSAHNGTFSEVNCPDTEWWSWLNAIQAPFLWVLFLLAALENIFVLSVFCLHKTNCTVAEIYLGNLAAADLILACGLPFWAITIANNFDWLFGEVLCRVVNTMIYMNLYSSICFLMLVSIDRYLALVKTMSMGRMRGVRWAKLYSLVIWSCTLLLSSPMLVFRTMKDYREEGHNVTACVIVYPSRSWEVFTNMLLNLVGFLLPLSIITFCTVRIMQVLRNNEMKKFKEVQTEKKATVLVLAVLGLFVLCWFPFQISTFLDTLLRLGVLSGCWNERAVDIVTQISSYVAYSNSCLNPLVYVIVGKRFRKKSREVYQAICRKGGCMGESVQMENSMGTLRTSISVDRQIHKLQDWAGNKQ

BK2 receptor [3] = target: T3, BK2 receptor (Oryctolagus cuniculus, UniProt Q28642); assay: blood pressure response to BK2 agonist in LPS-pretreated rabbits; type: in vivo, rabbit; set-up: key to OBSERVED ANTAGONIST ACTIVITY BK2: +: indicates complete blockade of the blood pressure response to the appropriate agonist; +/-: indicates partial blockade; -: indicates no observable effect at the dose indicated; details: for OBSERVED ANTAGONIST ACTIVITY BK2: rabbits given LPS (10 μg) 20 hours before
T3 construct: when administered to an intact animal; from tissue; host or cells: whole rabbit (systemic arterial blood pressure), LPS-pretreated
T3 sequence (Q28642 1-367): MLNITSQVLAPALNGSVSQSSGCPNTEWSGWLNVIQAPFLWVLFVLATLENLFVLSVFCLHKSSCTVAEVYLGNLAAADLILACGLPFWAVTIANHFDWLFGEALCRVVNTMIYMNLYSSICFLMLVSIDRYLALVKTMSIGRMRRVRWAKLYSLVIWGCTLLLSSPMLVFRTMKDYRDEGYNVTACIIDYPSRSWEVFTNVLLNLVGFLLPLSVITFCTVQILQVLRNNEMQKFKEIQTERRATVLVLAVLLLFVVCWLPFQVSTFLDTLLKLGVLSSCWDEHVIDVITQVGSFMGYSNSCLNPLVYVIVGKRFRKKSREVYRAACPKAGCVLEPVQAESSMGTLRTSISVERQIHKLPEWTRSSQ

BK1 receptor [4] = target: T1, BK1 receptor; assay: blood pressure response to BK1 agonist in LPS-pretreated rabbits; type: in vivo, rabbit; details: for OBSERVED ANTAGONIST ACTIVITY BK1: rabbits given LPS (10 μg) 20 hours before
BK2 receptor [5] = target: T2, BK2 receptor; assay: cell-based
BK2 receptor [6] = target: T4, BK2 receptor (Cavia porcellus, UniProt O70526); assay: guinea-pig ileum (GPI) in vitro, antagonism of BK; type: cell-based; details: Table B; read-out: pA2 GUINEA PIG ILEUM (converted)
T4 construct: tested for activity on guinea pig ileum in vitro on the standard tissue bath/strain gauge system; from tissue; host or cells: guinea pig ileum
T4 sequence (O70526 1-372): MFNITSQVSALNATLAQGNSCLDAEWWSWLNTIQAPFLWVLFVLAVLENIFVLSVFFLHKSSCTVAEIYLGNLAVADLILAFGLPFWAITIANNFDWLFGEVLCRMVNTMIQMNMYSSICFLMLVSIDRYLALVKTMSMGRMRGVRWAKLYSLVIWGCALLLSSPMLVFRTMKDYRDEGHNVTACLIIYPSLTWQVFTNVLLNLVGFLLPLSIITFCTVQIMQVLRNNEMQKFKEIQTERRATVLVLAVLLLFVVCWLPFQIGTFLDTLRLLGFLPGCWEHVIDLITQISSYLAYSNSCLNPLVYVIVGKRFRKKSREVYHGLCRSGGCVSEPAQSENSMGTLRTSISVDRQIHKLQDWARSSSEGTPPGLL
Experimental: Thus, in vitro studies were performed on standard assay systems, namely, guinea-pig ileum (GPI), rat uterus (RU) and rabbit jugular vein (RJV). […] The potency of each compound was assessed as a pA2 value according to the method of Arunlakshana & Schild, Br. J. Pharmacol. Chemother., 1.4:48-58 (1959). The pA2 can be defined as the negative logarithm of the molar concentration of the antagonist in the presence of which the potency of the agonist is reduced two-fold, i.e., twice the amount of agonist is required to produce a given response in the presence of, than in the absence of, the antagonist. A high potency of antagonism is indicated by a high pA2 value, i.e., a low concentration of antagonist is effective.
The percentage recovery (% Rec) was also determined for compounds with respect to each assay.
The various compounds identified in Table B below were prepared following the procedure of Example 1 with the Cys moiety introduced into the parent CP-0088 at the position indicated followed by reaction between the sulfhydryl group of the Cys residue and BMH to provide dimers as indicated. The Cys-modified monomers and the resultant dimers were tested for activity on guinea pig ileum in vitro on the standard tissue bath/strain gauge system as before.

[7] = FIG. 8c, rabbits after endotoxin pretreatment

Compound	BK1 antagonism (BK1 receptor [1])	IC50 (BK1 receptor [1]; Table L) [µM]	activity in the rat uterus BK2 receptor system (BK2 receptor [2])	BK2 Rat Uterus pA2 (BK2 receptor [2])	OBSERVED ANTAGONIST ACTIVITY BK2 (BK2 receptor [3]; 1 μg kg^-1 min^-1)	OBSERVED ANTAGONIST ACTIVITY BK2 (BK2 receptor [3]; 3 μg kg^-1 min^-1)	OBSERVED ANTAGONIST ACTIVITY BK2 (BK2 receptor [3]; 10 μg kg^-1 min^-1)	OBSERVED ANTAGONIST ACTIVITY BK1 (BK1 receptor [4]; 1 μg kg^-1 min^-1)	OBSERVED ANTAGONIST ACTIVITY BK1 (BK1 receptor [4]; 3 μg kg^-1 min^-1)	OBSERVED ANTAGONIST ACTIVITY BK1 (BK1 receptor [4]; 10 μg kg^-1 min^-1)	Kb (BK2 receptor [5]) [µM]	also measured
CC(C)C[C@H](NC(=O)[C@@H]1CCCN1C(=O)[C@H](CO)NC(=O)[C@H](Cc1ccccc1)NC(=O)CNC(=O)[C@@H]1C[C@@H](O)CN1C(=O)[C@@H]1CCCN1C(=O)[C@H](CS)NC(=O)[C@H](N)CCCNC(=N)N)C(=O)O [CP-0362] (HELM PEPTIDE1{[dR].C.P.[Hyp].G.F.S.P.L}$$$$V2.0; N-terminus and C-terminus assumed)												IC50 (BK1 receptor [1]; Table K): 1 µM; BK2 (RAT UTERUS) pA2 (BK2 receptor [2]; Table K): Inactive
CC(C)C[C@H](NC(=O)[C@@H]1CCCN1C(=O)[C@H](CO)NC(=O)[C@H](Cc1ccccc1)NC(=O)CNC(=O)[C@@H]1C[C@@H](O)CN1C(=O)[C@@H]1CCCN1C(=O)[C@H](CSC1CC(=O)N(CCCCCCN2C(=O)CC(SC[C@H](NC(=O)[C@H](Cc3ccccc3)NC(=O)CNC(=O)[C@@H]3C[C@@H](O)CN3C(=O)[C@@H]3CCCN3C(=O)[C@H](CCCNC(=N)N)NC(=O)[C@H](N)CCCNC(=N)N)C(=O)N[C@H](Cc3ccccc3)C(=O)N[C@@H](CC(C)C)C(=O)N[C@@H](CCCNC(=N)N)C(=O)O)C2=O)C1=O)NC(=O)[C@@H](N)CCCCN)C(=O)O (stereo partly shown) [CP-0382] (HELM PEPTIDE1{[dR].R.P.[Hyp].G.F.C.[dF].L.R}|PEPTIDE2{K.C.P.[Hyp].G.F.S.P.L}|CHEM1{[O=C1CC([*:1])C(=O)N1CCCCCCN1C(=O)CC([*:2])C1=O]}$PEPTIDE1,CHEM1,7:R3-1:R1|PEPTIDE2,CHEM1,2:R3-1:R2$$$V2.0; N-terminus and C-terminus assumed)	BK1 antagonism was retained	0.631	substantial partial agonism	Agonist								
CC(C)C[C@H](NC(=O)[C@@H]1CCCN1C(=O)[C@H](CO)NC(=O)[C@H](Cc1cccs1)NC(=O)CNC(=O)[C@@H]1CCCN1C(=O)[C@@H]1CCCN1C(=O)[C@H](CSC1CC(=O)N(CCCCCCN2C(=O)CC(SC[C@H](NC(=O)[C@H](Cc3ccccc3)NC(=O)CNC(=O)[C@@H]3C[C@@H](O)CN3C(=O)[C@@H]3CCCN3C(=O)[C@H](CCCNC(=N)N)NC(=O)[C@H](N)CCCNC(=N)N)C(=O)N[C@H](Cc3ccccc3)C(=O)N[C@@H](CC(C)C)C(=O)N[C@@H](CCCNC(=N)N)C(=O)O)C2=O)C1=O)NC(=O)[C@@H](N)CCCCN)C(=O)O (stereo partly shown) [CP-0383] (HELM PEPTIDE1{[dR].R.P.[Hyp].G.F.C.[dF].L.R}|PEPTIDE2{K.C.P.P.G.[O=C([C@H](Cc1cccs1)N[*:1])[*:2]].S.P.L}|CHEM1{[O=C1CC([*:1])C(=O)N1CCCCCCN1C(=O)CC([*:2])C1=O]}$PEPTIDE1,CHEM1,7:R3-1:R1|PEPTIDE2,CHEM1,2:R3-1:R2$$$V2.0)	BK1 antagonism was retained	0.0158	substantial partial agonism	Agonist								
CC(C)C[C@H](NC(=O)[C@@H]1CCCN1C(=O)[C@H](CO)NC(=O)[C@H](Cc1ccccc1)NC(=O)CNC(=O)[C@@H]1C[C@@H](O)CN1C(=O)[C@@H]1CCCN1C(=O)[C@H](CSC1CC(=O)N(CCCCCCN2C(=O)CC(SC[C@H](NC(=O)[C@H](Cc3ccccc3)NC(=O)CNC(=O)[C@@H]3C[C@@H](O)CN3C(=O)[C@@H]3CCCN3C(=O)[C@H](CCCNC(=N)N)NC(=O)[C@H](N)CCCNC(=N)N)C(=O)N[C@H](Cc3ccccc3)C(=O)N[C@@H](CC(C)C)C(=O)N[C@@H](CCCNC(=N)N)C(=O)O)C2=O)C1=O)NC(=O)[C@H](N)CCCNC(=N)N)C(=O)O (stereo partly shown) [CP-0364] (HELM PEPTIDE1{[dR].R.P.[Hyp].G.F.C.[dF].L.R}|PEPTIDE2{[dR].C.P.[Hyp].G.F.S.P.L}|CHEM1{[O=C1CC([*:1])C(=O)N1CCCCCCN1C(=O)CC([*:2])C1=O]}$PEPTIDE1,CHEM1,7:R3-1:R1|PEPTIDE2,CHEM1,2:R3-1:R2$$$V2.0; N-terminus and C-terminus assumed)		0.0316			+	+	+	+	+	+	0.00501	block of BK2-mediated hypotensive response (BK2 receptor [3]; [7]): capable of blocking the response profile to both agonists simultaneously; block of BK1-mediated hypotensive response (BK1 receptor [4]; [7]): capable of blocking the response profile to both agonists simultaneously
N=C(N)NCCC[C@@H](N)C(=O)N[C@@H](CCCNC(=N)N)C(=O)N1CCC[C@H]1C(=O)N1C[C@H](O)C[C@H]1C(=O)NCC(=O)N[C@@H](Cc1ccccc1)C(=O)N[C@@H](CSC1CC(=O)N(CCCCCCN2C(=O)CC(SC[C@H](NC(=O)[C@H](N)CCCNC(=N)N)C(=O)N3CCC[C@H]3C(=O)N3C[C@H](O)C[C@H]3C(=O)NCC(=O)N[C@@H](Cc3ccccc3)C(=O)N[C@@H](CO)C(=O)N3Cc4ccccc4C[C@@H]3C(=O)N3[C@H](C(=O)O)C[C@@H]4CCCC[C@@H]43)C2=O)C1=O)C(=O)N1Cc2ccccc2C[C@@H]1C(=O)N1[C@H](C(=O)N[C@@H](CCCNC(=N)N)C(=O)O)C[C@@H]2CCCC[C@@H]21 (stereo partly shown) [CP-0365] (I: H-[dR]RP[Hyp]GFC[dTic][Oic]R-OH / II: H-[dR]CP[Hyp]GFS[dTic][Oic]-OH; linker I:7-II:2 via BMH; N-terminus and C-terminus assumed)		0.0398			-	+	+	-	+	+	0.00398	
CC(C)C[C@H](NC(=O)[C@@H](Cc1ccccc1)NC(=O)[C@H](CO)NC(=O)[C@H](Cc1ccccc1)NC(=O)CNC(=O)[C@@H]1C[C@@H](O)CN1C(=O)[C@@H]1CCCN1C(=O)[C@H](CS)NC(=O)[C@H](N)CCCNC(=N)N)C(=O)N[C@@H](CCCNC(=N)N)C(=O)O [CP-0141] (HELM PEPTIDE1{[dR].C.P.[Hyp].G.F.S.[dF].L.R}$$$$V2.0)											> 1	% REC MONOMER (BK2 receptor [2]; Table C, rat uterus): 100%; Kb (BK2 receptor [6]): 0.794 µM
